Test results as given in paper PMC6199744, “Development of Chemical Proteomics for the Folateome and Analysis of the Kinetoplastid Folateome” (ACS Infectious Diseases, 2018).
Read-outs that look alike come from different tables or passages of the source.

Assays:
Format in all cases: binding
[1] = target: T1, HeLa cell extract proteins (Homo sapiens, UniProt O15269)
T1 construct: endogenous in cells; host or cells: HeLa cell extract
T1 sequence (O15269 1-473): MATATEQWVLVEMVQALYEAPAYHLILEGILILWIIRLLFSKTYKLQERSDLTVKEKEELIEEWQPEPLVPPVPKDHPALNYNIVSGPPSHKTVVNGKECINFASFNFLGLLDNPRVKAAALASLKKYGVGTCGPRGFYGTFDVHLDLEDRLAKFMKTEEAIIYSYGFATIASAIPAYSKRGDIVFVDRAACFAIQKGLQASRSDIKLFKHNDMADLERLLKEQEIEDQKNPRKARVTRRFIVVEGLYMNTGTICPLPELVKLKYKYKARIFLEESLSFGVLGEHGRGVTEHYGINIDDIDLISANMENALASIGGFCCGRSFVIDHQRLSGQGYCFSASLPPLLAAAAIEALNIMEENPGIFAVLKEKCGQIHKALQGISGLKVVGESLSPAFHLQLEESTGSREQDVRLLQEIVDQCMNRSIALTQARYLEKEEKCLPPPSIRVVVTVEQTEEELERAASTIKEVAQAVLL

[2] = target: T2, HeLa cell extract proteins (Homo sapiens, UniProt O95714)
T2 construct: endogenous in cells; host or cells: HeLa cell extract

[3] = target: T3, HeLa cell extract proteins (Homo sapiens, UniProt P00338)
T3 construct: endogenous in cells; host or cells: HeLa cell extract

[4] = target: T4, HeLa cell extract proteins (Homo sapiens, UniProt P06730)
T4 construct: endogenous in cells; host or cells: HeLa cell extract

[5] = target: T5, HeLa cell extract proteins (Homo sapiens, UniProt P63104)
T5 construct: endogenous in cells; host or cells: HeLa cell extract
T5 sequence (P63104 1-245): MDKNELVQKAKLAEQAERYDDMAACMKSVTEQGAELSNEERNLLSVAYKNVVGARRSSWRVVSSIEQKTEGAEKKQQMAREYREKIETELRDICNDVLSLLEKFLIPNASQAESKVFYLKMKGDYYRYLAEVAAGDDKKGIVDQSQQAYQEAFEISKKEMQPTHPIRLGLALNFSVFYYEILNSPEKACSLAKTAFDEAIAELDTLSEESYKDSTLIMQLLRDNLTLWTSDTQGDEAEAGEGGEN

[6] = target: T6, HeLa cell extract proteins (Homo sapiens, UniProt Q13618)
T6 construct: endogenous in cells; host or cells: HeLa cell extract

[7] = target: T7, HeLa cell extract proteins (Homo sapiens, UniProt Q93100)
T7 construct: endogenous in cells; host or cells: HeLa cell extract
T7 sequence (Q93100 1-1093): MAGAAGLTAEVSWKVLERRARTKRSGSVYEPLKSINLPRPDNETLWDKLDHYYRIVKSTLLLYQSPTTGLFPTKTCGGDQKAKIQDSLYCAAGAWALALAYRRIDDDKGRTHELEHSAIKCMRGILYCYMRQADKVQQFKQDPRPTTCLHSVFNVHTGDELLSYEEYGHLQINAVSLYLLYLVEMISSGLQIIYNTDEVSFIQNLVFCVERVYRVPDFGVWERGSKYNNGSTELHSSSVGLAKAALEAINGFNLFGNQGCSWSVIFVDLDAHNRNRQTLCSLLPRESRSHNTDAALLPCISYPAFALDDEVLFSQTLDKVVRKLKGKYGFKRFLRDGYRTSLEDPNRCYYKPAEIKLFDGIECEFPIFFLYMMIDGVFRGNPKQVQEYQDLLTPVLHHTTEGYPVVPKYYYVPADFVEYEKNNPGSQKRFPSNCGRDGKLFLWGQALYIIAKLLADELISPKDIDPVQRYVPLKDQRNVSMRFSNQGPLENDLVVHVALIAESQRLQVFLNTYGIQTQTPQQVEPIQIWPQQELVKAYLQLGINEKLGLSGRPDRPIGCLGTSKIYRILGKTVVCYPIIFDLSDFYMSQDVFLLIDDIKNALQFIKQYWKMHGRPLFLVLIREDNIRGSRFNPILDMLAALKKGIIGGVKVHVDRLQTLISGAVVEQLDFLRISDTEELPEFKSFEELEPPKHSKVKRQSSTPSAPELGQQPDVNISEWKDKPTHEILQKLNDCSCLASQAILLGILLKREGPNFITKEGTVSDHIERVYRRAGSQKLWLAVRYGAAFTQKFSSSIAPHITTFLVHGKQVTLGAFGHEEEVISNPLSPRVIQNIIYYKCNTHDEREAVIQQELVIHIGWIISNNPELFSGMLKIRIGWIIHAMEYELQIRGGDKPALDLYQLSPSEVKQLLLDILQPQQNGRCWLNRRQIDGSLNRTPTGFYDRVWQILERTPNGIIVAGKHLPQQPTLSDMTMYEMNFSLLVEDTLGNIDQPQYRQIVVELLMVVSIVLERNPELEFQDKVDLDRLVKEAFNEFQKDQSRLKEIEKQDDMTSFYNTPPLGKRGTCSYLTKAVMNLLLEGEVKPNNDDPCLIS

[8] = target: T8, HeLa cell extract proteins (Homo sapiens, UniProt Q96AE4)
T8 construct: endogenous in cells; host or cells: HeLa cell extract
T8 sequence (Q96AE4 1-644): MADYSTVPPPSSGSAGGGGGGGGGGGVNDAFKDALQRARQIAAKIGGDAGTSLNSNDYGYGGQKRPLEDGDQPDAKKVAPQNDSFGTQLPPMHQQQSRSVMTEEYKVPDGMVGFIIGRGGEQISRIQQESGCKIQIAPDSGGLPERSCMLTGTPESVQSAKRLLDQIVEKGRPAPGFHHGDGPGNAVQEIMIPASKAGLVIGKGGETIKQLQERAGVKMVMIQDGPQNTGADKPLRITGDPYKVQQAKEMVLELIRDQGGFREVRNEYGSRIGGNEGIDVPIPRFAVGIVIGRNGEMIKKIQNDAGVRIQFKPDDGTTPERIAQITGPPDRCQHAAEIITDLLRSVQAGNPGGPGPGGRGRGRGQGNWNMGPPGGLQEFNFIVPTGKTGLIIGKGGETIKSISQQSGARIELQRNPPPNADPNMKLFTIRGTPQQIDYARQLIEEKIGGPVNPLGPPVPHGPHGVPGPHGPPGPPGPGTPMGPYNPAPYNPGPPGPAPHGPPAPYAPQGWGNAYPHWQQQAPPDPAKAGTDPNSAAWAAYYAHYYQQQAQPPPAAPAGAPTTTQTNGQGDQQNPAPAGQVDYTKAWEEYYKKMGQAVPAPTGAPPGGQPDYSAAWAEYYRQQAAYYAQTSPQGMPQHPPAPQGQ

[9] = target: T9, HeLa cell extract proteins (Homo sapiens, UniProt Q9NR09)
T9 construct: endogenous in cells; host or cells: HeLa cell extract

[10] = HeLa, protein BIRC6 (B[…] REPEAT-CONTAINING 6)
[11] = HeLa, protein LDHA (ISOFORM 1 OF L-LACTATE DEHYDROGENASE A CHAIN.)
[12] = HeLa, protein YWHAZ (28 KDA PROTEIN.)

T2 sequence (O95714 whole entry): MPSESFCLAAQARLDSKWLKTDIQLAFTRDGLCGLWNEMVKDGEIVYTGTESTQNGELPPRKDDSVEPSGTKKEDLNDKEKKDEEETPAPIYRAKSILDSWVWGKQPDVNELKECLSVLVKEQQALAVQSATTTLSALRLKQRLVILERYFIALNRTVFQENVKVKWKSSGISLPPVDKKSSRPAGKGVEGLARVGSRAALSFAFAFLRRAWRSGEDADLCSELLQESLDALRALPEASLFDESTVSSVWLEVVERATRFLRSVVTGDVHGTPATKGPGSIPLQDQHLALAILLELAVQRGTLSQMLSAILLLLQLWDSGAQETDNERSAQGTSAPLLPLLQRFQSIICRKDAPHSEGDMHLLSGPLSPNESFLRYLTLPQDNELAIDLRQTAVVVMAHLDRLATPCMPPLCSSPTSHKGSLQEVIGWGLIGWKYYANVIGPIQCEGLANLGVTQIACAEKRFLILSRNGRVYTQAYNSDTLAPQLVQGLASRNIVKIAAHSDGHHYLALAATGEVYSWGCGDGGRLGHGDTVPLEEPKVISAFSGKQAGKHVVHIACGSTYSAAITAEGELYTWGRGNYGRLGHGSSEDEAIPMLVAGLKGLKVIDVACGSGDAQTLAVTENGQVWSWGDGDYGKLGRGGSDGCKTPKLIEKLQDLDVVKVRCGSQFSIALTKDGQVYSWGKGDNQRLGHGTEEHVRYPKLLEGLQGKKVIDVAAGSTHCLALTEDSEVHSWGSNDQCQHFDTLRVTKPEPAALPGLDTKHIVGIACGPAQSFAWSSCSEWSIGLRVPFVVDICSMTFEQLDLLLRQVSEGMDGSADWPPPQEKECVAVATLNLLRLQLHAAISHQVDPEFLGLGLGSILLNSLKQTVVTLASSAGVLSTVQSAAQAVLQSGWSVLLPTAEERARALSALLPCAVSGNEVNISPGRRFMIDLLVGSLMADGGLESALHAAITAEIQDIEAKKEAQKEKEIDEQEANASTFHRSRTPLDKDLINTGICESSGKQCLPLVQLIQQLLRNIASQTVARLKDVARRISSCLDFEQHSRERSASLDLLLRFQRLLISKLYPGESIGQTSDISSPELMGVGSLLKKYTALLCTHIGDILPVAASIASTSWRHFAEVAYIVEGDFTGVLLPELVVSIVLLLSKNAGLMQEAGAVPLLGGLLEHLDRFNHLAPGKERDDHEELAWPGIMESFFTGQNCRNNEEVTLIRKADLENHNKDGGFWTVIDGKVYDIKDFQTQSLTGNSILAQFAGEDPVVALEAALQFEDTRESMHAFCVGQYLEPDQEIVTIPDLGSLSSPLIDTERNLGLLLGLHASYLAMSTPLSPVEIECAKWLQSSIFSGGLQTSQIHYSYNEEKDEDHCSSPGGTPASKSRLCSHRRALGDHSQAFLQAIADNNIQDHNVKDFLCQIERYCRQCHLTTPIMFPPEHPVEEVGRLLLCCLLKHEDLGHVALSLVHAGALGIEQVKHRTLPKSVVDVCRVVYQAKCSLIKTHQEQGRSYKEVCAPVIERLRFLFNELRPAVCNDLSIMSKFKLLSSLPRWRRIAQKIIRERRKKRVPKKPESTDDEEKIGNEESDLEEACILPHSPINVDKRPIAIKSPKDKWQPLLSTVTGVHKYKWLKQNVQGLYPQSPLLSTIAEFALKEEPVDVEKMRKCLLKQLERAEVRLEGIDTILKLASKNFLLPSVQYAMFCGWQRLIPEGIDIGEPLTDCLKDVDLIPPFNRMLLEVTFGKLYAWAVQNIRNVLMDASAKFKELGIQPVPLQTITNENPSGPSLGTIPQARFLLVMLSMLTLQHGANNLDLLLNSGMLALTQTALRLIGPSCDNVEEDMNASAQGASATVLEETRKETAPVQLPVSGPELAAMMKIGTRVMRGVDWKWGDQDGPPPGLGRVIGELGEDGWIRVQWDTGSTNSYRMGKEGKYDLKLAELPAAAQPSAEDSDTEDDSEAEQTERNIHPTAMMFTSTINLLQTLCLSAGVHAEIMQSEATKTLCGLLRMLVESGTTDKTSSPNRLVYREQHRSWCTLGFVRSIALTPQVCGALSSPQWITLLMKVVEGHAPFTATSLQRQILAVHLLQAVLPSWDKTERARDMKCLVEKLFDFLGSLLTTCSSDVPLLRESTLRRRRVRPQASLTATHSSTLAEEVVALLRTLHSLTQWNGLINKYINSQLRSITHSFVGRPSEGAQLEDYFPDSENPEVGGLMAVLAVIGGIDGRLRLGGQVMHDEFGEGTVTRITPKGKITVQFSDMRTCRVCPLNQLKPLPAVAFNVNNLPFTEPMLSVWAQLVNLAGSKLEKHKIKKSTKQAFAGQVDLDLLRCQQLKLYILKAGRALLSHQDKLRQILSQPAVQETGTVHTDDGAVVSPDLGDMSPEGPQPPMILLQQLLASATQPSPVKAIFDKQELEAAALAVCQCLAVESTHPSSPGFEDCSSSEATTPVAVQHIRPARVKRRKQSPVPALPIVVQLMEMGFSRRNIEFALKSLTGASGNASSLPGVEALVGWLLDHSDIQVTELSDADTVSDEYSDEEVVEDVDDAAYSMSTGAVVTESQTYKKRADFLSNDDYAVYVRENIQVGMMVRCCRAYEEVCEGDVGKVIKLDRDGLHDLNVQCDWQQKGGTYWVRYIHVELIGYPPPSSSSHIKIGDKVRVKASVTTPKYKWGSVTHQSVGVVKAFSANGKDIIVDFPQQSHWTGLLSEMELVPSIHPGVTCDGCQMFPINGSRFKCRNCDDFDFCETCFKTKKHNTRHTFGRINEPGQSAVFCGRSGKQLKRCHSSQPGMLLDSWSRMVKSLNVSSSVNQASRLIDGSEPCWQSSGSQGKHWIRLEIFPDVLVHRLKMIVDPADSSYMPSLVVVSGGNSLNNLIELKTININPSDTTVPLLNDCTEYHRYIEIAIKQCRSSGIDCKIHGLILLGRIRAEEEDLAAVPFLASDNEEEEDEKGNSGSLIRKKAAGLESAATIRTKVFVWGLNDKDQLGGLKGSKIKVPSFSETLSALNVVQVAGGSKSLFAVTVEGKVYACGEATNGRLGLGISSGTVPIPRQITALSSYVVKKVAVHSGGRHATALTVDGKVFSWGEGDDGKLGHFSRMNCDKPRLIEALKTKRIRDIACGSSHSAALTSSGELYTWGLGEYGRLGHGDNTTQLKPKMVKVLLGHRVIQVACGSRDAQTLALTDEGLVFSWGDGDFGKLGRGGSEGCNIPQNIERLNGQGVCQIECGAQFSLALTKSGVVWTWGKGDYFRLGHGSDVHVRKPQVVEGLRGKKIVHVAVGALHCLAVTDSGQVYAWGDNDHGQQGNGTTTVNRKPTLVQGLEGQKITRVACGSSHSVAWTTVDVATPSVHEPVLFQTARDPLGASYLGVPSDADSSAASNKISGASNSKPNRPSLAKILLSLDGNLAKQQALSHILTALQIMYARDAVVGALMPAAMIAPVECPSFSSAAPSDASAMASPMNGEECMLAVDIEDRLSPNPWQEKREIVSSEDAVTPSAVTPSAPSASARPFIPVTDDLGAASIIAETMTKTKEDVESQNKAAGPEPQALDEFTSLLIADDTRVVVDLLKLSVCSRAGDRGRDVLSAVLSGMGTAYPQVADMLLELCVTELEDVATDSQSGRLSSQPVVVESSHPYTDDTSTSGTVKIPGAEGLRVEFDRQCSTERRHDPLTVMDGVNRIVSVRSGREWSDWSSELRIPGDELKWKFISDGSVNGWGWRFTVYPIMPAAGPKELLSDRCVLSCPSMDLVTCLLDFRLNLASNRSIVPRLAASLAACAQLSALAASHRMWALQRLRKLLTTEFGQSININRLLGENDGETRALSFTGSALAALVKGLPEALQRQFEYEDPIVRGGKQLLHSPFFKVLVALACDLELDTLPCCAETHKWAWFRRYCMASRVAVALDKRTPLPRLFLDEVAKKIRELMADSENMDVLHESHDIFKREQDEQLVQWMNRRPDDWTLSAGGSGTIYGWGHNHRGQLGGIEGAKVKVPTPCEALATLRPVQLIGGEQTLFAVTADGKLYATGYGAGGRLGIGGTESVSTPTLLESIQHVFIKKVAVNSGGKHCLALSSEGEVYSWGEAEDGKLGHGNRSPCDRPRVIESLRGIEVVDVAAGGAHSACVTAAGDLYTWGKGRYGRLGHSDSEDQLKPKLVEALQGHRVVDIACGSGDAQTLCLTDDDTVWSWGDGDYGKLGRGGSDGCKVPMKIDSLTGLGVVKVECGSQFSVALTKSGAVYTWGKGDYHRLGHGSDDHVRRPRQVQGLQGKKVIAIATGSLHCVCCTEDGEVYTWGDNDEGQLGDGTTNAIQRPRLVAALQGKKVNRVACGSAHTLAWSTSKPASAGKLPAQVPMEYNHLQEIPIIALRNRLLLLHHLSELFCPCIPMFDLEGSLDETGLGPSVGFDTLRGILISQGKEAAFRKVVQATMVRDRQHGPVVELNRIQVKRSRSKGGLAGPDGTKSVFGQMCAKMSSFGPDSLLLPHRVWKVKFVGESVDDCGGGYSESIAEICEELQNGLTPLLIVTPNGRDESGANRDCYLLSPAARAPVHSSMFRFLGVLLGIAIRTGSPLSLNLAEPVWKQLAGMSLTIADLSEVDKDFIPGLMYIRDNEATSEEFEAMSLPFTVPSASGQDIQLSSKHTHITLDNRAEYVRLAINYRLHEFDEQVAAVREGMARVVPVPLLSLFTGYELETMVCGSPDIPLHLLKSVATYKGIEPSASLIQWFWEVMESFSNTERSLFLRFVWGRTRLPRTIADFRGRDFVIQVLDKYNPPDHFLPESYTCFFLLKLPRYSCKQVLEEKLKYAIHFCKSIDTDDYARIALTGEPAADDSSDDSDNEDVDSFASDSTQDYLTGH
T4 sequence (P06730 whole entry): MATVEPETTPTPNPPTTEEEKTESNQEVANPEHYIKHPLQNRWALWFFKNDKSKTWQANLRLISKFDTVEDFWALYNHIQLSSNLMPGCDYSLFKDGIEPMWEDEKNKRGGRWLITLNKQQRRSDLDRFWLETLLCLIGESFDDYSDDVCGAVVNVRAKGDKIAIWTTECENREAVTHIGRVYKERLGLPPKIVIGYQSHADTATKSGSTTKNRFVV

Structure (SMILES)	fold changes relative to vehicle control ([1]; HeLa, protein SPTLC1)	fold changes relative to vehicle control ([2]; protein HERC2, HeLa)	fold changes relative to vehicle control ([3]; HeLa, protein LDHA)	fold changes relative to vehicle control ([4]; HeLa, captured protein EIF4E)	fold changes relative to vehicle control ([5]; HeLa, protein YWHAZ)	fold changes relative to vehicle control ([6]; HeLa, protein CUL3)	fold changes relative to vehicle control ([7]; HeLa, protein PHKB)	fold changes relative to vehicle control ([8]; HeLa, captured protein FUBP1)	fold changes relative to vehicle control [9, 10]	fold changes relative to vehicle control ([1]; captured protein SPTLC1, HeLa)	fold changes relative to vehicle control ([4]; HeLa, protein EIF4E)	fold changes relative to vehicle control [5, 12]	fold changes relative to vehicle control ([6]; captured protein CUL3, HeLa)	fold changes relative to vehicle control ([7]; captured protein PHKB, HeLa)	fold changes relative to vehicle control ([8]; protein FUBP1, HeLa)	fold changes relative to vehicle control ([9]; HeLa, protein BIRC6)	also measured
Nc1nc2c(c(=O)[nH]1)N(C=O)C(CNc1ccc(C(=O)N[C@@H](CCC(=O)O)C(=O)O)cc1)CN2 (stereo partly drawn) [LEU, leucovorin]	0.9	1.09	1.07	1.09	1.05	0.92	1	1.09	1.08	–	–	–	–	–	–	–	–
Nc1nc2[nH]cc(CCc3ccc(C(=O)N[C@@H](CCC(=O)O)C(=O)O)cc3)c2c(=O)[nH]1 [PTX, pemetrexed]	–	–	–	–	–	–	–	–	–	–	–	–	–	–	–	–	fold changes relative to vehicle control [1]: 0.95; fold changes relative to vehicle control [2]: 1; fold changes relative to vehicle control [3]: 1.15; fold changes relative to vehicle control [4]: 0.99; fold changes relative to vehicle control [5]: 1.08; fold changes relative to vehicle control [6]: 0.92; fold changes relative to vehicle control [7]: 1.02; fold changes relative to vehicle control [8]: 1.17; fold changes relative to vehicle control [9]: 1
CCCCCCOc1ccc(Cc2cnc(N)nc2N)cc1 [compound 1]	–	1	–	–	–	–	–	–	–	0.8	0.94	1.31 fold	1.01	0.86	1.24	1.06	fold changes relative to vehicle control [3, 11]: 1.48 fold
CCCCCCOc1cccc(Cc2cnc(N)nc2N)c1 [compound 2]	–	0.83	–	–	–	–	–	–	–	1.03	0.97	2.26 fold	1.17	1.09	1.48	0.92	fold changes relative to vehicle control [3, 11]: 2.61 fold
Nc1nc2cccc(-c3ccccc3)c2n1Cc1ccc(Cl)c(Cl)c1 [compound 3]	–	1.08	–	–	–	–	–	–	–	1.09	1	0.72 fold	0.93	1.19	1	1.12	fold changes relative to vehicle control ([3]; HeLa, protein LDHA (ISOFORM 1 OF L-LACTATE DEH[…] CHAIN.)): 0.92 fold
NCCOCCOCC(=O)Nc1nc2ncc(CNc3ccc(C(=O)NC(CCC(=O)O)C(=O)O)cc3)nc2c(=O)[nH]1 (stereo not drawn) [compound 6]	0.95	1.07	1.23	1.03	1.22	0.97	1.04	1.28	1.06	–	–	–	–	–	–	–	–
NCCCNc1ccc(C(=O)NC(CCC(=O)O)C(=O)O)cc1 (stereo not drawn) [compound 7]	1.03	1.09	0.95	1.1	0.9	0.91	1.08	1	1.12	–	–	–	–	–	–	–	–
